The test system of one assay is HeLa cells. Briefly: HeLa cell 24 hr ploidy assay. Type of assay: cell-based. Particulars: Homo sapiens, 24 hrs treatment, DNA content (ploidy), read-out: 24 h_4N Ploidy EC50—IP (Avg). As for the experimental part: HeLa Cell 24 hr Ploidy Assay Protocol
The purpose of this assay is to evaluate the ability of selected individual compounds to induce Deoxyribonucleic acid (DNA) content (ploidy) in cells thought failed cell division. Cell cycle analysis is a rapid and efficient way to evaluate the status of DNA content (ploidy) of a given cell. HeLa cells (1×10^4 HeLa cells/well) in 100 ul of media (MEM+10% FBS) were plated in 96-well plates (Packard View) and cultured for 24 hrs at 37° C. maintained in a 5% CO2 atmosphere. The following day, cells were treated for 24 hrs with inhibitor compounds (10 pt. Dose ranging from 0.0024-1.25 umol/L). The compounds were serially diluted in DMSO (0.25% final concentration). The cells were fixed (3.7% Formaldehyde and 1% glutaraldehyde) and permeabilized (1×PBS with 1% BSA and 0.2% Triton X-100) in preparation for nuclear staining. The well plates were stained for 45 minutes at RT in the dark using Hoechest 33342 nuclear stain at 0.5 ug·ml (Stock of 10 mg/ml, Invitrogen, CA, Cat # H3570). The nuclear stain was removed by aspiration and the cells were washed with wash buffer. A Cellomics Array Scan Vti plate reader was used to acquire the DNA ploidy data of the cells using Cell Cycle bioapplication. Numbers for each of “valid cell count/well”, “% of 4N cells” and “% of >4Ncells” were calculated with the assistance of an Activity Base 5.1ca software and dose curves were generated using an XLFit software. With XLFit, final EC50 IP and EC50 transit values, as well as the Max and Min, were calculated for each curve. Many of the Examples described herein were tested, and fund to be active compounds. Table I includes related biological data in the 24 h cell-ploidy content assay, which may be interpreted using the activity gauge below: […]

The target in a further assay is T1, AuroraB (Homo sapiens, UniProt Q96GD4).
T1 construct: 20 μL of AuroraB FL His; His
Briefly: AuroraB Homogeneous Time Resolved Fluorescent (HTRF) kinase assay. Particulars: ATP 23 μM, biotinylated Histone H3 peptide, read-out: AurB_IC50—IP (Avg). The assay is classed as biochemical. As for the experimental part: AuroraB-Homogeneous Time Resolved Fluorescent (HTRF) Kinase Assay:
The AuroraB HTRF assay begins with AuroraB in the presence of ATP phosphorylating the biotinylated peptide Histone H3. The reaction incubates for about 90 min. the reaction is quenched by addition of detection reagents, which stop the reaction by diluting out the enzyme and chelating the metals due to the presence of EDTA. After addition, the assay is incubated for about 60 min to allow detection reagents to equilibrate.
The AuroraB HTRF assay comprises 1 μL of compound in 100% DMSO, 20 μL of ATP and biotinylated Histone H3, and 20 μL of AuroraB FL His for a final volume of 41 μL. The final concentration of Histone H3 is 0.1 μM. The final concentration of ATP is 23 μM (Km(app)=23 μM+/−2.6) and the final concentration of AuroraB is 400 pM. Buffer conditions are as follows: 50 mM HEPES pH 7.5, 5 mM NaCl, 0.5 mM MgCl, 0.5 mM MnCl, 2 mM DTT, 0.05% BSA.
The assay is quenched and stopped with 160 μL of detection reagent. Detection reagents are as follows: Buffer made of 50 mM Tris, pH 7.5, 100 mM NaCl, 3 mM EDTA, 0.05% BSA, 0.1% Tween20. Added to this buffer prior to reading is Steptavidin allophycocyanin (SA-APC) at a final conc in the assay of 0.001 mg/mL, and europilated anti-phosphoHistoneH3 Ab (Eu-anti-His H3) at a final conc of 0.064 nM.
The assay plate is read in either a Discovery or a RubyStar. The eu-anti-His H3 is excited at 320 nm and emits at 615 nm to excite the SA-APC which in turn emits at 655 nm. The ratio of SA-APC at 655 nm (excited due to close proximity to the Eu-anti-His H3 because of phosphorylation of the peptide) to free Eu-anti-His H3 at 615 nm will give substrate phosphorylation.
(§1) Many of the Examples described herein were tested, and found to be active compounds. Table I includes related biological data, which may be interpreted using the activity gauge below: […]
On the technique in general: In TR-FRET formats the signal depends on donor and acceptor labels being close together.

The target in a further assay is T2, AuroraA-TPX2 (Homo sapiens, UniProt O14965).
T2 construct: 20 μL of AuroraA-TPX2 KD GST; GST
T2 sequence (O14965 133-383 limits assumed): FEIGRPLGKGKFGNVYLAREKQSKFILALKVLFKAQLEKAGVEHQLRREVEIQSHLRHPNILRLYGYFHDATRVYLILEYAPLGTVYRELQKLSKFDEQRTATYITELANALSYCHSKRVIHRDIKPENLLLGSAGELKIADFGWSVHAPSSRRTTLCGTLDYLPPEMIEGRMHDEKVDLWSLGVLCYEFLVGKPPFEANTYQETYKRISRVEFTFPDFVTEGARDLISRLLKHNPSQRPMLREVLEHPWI
T2 sequence (Q9ULW0 1-747 partner): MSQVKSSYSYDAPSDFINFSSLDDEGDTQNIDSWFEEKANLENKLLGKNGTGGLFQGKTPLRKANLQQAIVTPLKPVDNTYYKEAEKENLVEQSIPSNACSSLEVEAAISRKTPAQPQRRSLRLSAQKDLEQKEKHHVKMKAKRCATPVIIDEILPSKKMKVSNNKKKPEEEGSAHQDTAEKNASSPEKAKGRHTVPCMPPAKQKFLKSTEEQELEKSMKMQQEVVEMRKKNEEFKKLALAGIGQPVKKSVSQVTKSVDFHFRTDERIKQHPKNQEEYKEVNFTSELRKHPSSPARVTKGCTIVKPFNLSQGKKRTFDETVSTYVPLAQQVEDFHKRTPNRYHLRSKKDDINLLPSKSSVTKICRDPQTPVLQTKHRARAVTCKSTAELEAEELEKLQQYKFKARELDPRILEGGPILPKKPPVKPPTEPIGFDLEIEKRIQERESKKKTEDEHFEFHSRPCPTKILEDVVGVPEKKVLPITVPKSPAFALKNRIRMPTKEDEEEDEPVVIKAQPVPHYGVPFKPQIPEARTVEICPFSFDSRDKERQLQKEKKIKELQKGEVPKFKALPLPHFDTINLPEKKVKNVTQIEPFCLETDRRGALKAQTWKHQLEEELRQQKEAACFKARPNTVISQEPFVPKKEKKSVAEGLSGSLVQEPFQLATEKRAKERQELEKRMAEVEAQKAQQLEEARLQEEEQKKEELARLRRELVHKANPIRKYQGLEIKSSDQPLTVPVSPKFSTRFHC
Briefly: AuroraA-TPX2 Homogeneous Time Resolved Fluorescent (HTRF) kinase assay. The assay is classed as biochemical. Particulars: ATP about 1 μM, biotinylated PLK peptide, read-out: AurA_IC50—IP (Avg). As for the experimental part: AuroraA-TPX2-Homogeneous Time Resolved Fluorescent (HTRF) Kinase Assay:
The Aurora-A HTRF assay begins with Aurora-A in the presence of ATP phosphorylating the biotinylated peptide PLK. The reaction incubates for about 120 min. Detection reagents are added to quench the reaction. These agents stop the reaction by diluting out the enzyme and chelating the metals due to the presence of EDTA. After addition, the assay is incubated overnight to allow the detection reagents to equilibrate.
The AuroraA HTRF assay comprises 1 μL of compound in 100% DMSO, 20 μL of ATP and biotinylated PLK, and 20 μL of AuroraA-TPX2 KD GST for a final volume of about 41 μL. The final concentration of PLK is about 1 μM. The final concentration of ATP is about 1 μM (Km(app)=1 μM+/−0.1) and the final concentration of AuroraA is about 5 nM. Buffer conditions are as follows: 60 mM HEPES pH 7.5, 25 mM NaCl, 10 mM MgCl, 2 mM DTT, 0.05% BSA.
The assay is quenched and stopped with 160 μL of detection reagent. Detection reagents are as follows: Buffer made of 50 mM Tris, pH 7.5, 100 mM NaCl, 3 mM EDTA, 0.05% BSA, 0.1% Tween20. Added to this buffer prior to reading is Steptavidin allophycocyanin (SA-APC) at a final conc in the assay of 0.0005 mg/mL, and europilated anti-phosphoPLK Ab (Eu-anti-PLK) at a final conc of 0.02 nM.
The assay plate is read in either a Discovery or a RubyStar. The eu-anti-PLK is excited at 320 nm and emits at 615 nm to excite the SA-APC which in turn emits at 655 nm. The ratio of SA-APC at 655 nm (excited due to close proximity to the Eu-anti-PLK because of phosphorylation of the peptide) to free Eu-anti-PLK at 615 nm will give substrate phosphorylation.
as §1

For twelve compounds, EC50 and IC50 results are on record in US8404694B2, “Aurora kinase modulators and method of use” (Amgen Inc., priority 2008, dated 2013).

T1 sequence (Q96GD4 whole entry): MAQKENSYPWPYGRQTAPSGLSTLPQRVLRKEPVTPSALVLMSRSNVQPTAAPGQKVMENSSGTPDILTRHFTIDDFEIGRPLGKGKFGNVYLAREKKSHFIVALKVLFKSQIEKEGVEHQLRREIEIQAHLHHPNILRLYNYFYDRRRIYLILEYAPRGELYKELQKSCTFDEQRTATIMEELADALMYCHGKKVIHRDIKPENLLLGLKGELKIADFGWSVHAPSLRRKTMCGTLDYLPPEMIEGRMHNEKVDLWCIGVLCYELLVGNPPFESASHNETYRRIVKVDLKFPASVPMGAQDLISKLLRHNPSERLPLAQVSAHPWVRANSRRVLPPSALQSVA

On to `Cc1csc(-c2nnc(Nc3ccc(Sc4ccnc5cc(C6CC6)nn45)cc3)c3ccccc23)c1` [Example 23, N-(4-((2-cyclopropylpyrazolo[1,5-a]pyrimidin-7-yl)thio)phenyl)-4-(4-methyl-2-thienyl)-1-phthalazinamine], for which, in the assay on HeLa cells, the EC50 (in general, the concentration that produces a half-maximal response) was less than 100 nM. Also, the IC50 on AuroraB was 100 to 500 nM; at AuroraA-TPX2 it was less than 100 nM.
As for `Cc1ccc(-c2nnc(Nc3ccc(Sc4ccnc5ccnn45)cc3)c3ccccc23)nc1` [Example 21, 4-(5-methyl-2-pyridinyl)-N-(4-(pyrazolo[1,5-a]pyrimidin-7-ylthio)phenyl)-1-phthalazinamine], in the assay on HeLa cells, the concentration giving a half-maximal response (EC50) was less than 100 nM. Besides, the IC50 at AuroraB and on AuroraA-TPX2 was less than 100 nM in each case.
In the case of `Clc1ccc(-c2nnc(Nc3ccc(Sc4ncnn5ccc(Cl)c45)cc3)c3ccccc23)cc1` [Example 7, 4-(4-Chlorophenyl)-N-(4-(5-chloropyrrolo[1,2-f][1,2,4]triazin-4-ylthio)phenyl)phthalazin-1-amine], the concentration for a half-maximal effect (EC50) with HeLa cells lay within 100 to 500 nM. Besides, the results for the IC50 on AuroraB and on AuroraA-TPX2 were less than 100 nM and more than 2500 nM, respectively.
The matching figures for `Clc1ccc(-c2nnc(Nc3ccc(Sc4ccnc5ccnn45)cc3)c3ccccc23)nc1` [Example 20, 4-(5-chloro-2-pyridinyl)-N-(4-(pyrazolo[1,5-a]pyrimidin-7-ylthio)phenyl)-1-phthalazinamine]: less than 100 nM, less than 100 nM and less than 100 nM.
Taken in the same sequence, the figures for `Clc1ccc(-c2nnc(Nc3ccc(Sc4ccnc5cc(C6CC6)nn45)cc3)c3ccccc23)cc1` [Example 1, 4-(4-Chlorophenyl)-N-(4-(2-cyclopropylpyrazolo[1,5-a]pyrimidin-7-ylthio)phenyl)phthalazin-1-amine] were less than 100 nM, less than 100 nM and more than 2500 nM.
For `c1ccc(-c2nnc(Nc3ccc(Sc4ccnc5cc(C6CC6)nn45)cc3)c3ccccc23)cc1` [Example 22, N-(4-((2-cyclopropylpyrazolo[1,5-a]pyrimidin-7-yl)thio)phenyl)-4-phenyl-1-phthalazinamine], in the assay on HeLa cells, the EC50 was less than 100 nM. The figures for the IC50 at AuroraB and on AuroraA-TPX2 were less than 100 nM and 100 to 500 nM, respectively.
Consider `Cc1csc(-c2nnc(Nc3ccc(Oc4ncnn5cccc45)cc3)c3ccccc23)c1` [Example 24, 4-(4-methyl-2-thienyl)-N-(4-(pyrrolo[2,1-f][1,2,4]triazin-4-yloxy)phenyl)-1-phthalazinamine], for which, in the assay on HeLa cells, the concentration giving a half-maximal response (EC50) was 100 to 500 nM. In addition, the IC50 on AuroraB was less than 100 nM; at AuroraA-TPX2 it was 100 to 500 nM.
With `Cc1csc(-c2nnc(Nc3ccc(Sc4ncnn5cccc45)cc3)c3ccccc23)c1` [Example 26, 4-(4-methyl-2-thienyl)-N-(4-(pyrrolo[2,1-f][1,2,4]triazin-4-ylthio)phenyl)-1-phthalazinamine], in the assay on HeLa cells, the 50% effective concentration (EC50) fell in the range of 100 to 500 nM. The values for the IC50 at AuroraB and at AuroraA-TPX2 were less than 100 nM and 500 to 2500 nM, respectively.
Regarding `Clc1ccc(-c2nnc(Nc3ccc(Oc4ccnn5cccc45)cc3)c3ccccc23)cc1` [Example 2, 4-(4-Chlorophenyl)-N-(4-(pyrrolo[1,2-b]pyridazin-4-yloxy)phenyl)-1-phthalazinamine], in the assay with HeLa cells, the 50% effective concentration (EC50) lay in the range of 100 to 500 nM. The IC50 is less than 100 nM at AuroraB and 100 to 500 nM at AuroraA-TPX2.
On to `Clc1ccc(-c2nnc(Nc3ccc(Oc4ncnn5cccc45)cc3)c3ccccc23)cc1` [Example 3, 4-(4-Chlorophenyl)-N-(4-(pyrrolo[2,1-f][1,2,4]triazin-4-yloxy)phenyl)-1-phthalazinamine], for which, in the assay with HeLa cells, the EC50 was 500 to 2500 nM. Also, the values for the IC50 at AuroraB and on AuroraA-TPX2 were less than 100 nM and 500 to 2500 nM, respectively.
Take `C=CCOc1cc2nccc(Sc3ccc(Nc4nnc(-c5ccc(Cl)cc5)c5ccccc45)cc3)n2n1` [Example 4, N-(4-(2-(allyloxy)pyrazolo[1,5-a]pyrimidin-7-ylthio)phenyl)-4-(4-chlorophenyl)phthalazin-1-amine]: the concentration giving a half-maximal response (EC50) with HeLa cells fell in the range of 100 to 500 nM.
On to `Clc1ccc(-c2nnc(Nc3ccc(Sc4ncnn5cccc45)cc3)c3ccccc23)cc1` [Example 25, 4-(4-chlorophenyl)-N-(4-(pyrrolo[2,1-f][1,2,4]triazin-4-ylthio)phenyl)-1-phthalazinamine], for which the EC50 in the assay on HeLa cells lay in the range of 100 to 500 nM. Besides, the values for the IC50 at AuroraB and at AuroraA-TPX2 were less than 100 nM and more than 2500 nM, respectively.
